Results as given in US12325696B2, “Indazole derivative, preparation method therefor, and pharmaceutical application thereof” (JIANGSU HENGRUI MEDICINE CO., LTD., priority 2019, dated 2025).
pIC50: −log10 of the molar value. Where two headings read alike, the source gives them in different places.

What was measured:
Nav1.5 ion channel = Nav1.5 ion channel (Homo sapiens (Human), UniProt Q14524); assay: Manual patch clamp inhibition of Nav1.5 current in HEK293 cell; assay type: cell-based; details: whole-cell patch clamp, read-out: IC50 on inhibiting the Nav1.5 channel activity
Nav1.5 ion channel, sequence (Q14524 whole entry): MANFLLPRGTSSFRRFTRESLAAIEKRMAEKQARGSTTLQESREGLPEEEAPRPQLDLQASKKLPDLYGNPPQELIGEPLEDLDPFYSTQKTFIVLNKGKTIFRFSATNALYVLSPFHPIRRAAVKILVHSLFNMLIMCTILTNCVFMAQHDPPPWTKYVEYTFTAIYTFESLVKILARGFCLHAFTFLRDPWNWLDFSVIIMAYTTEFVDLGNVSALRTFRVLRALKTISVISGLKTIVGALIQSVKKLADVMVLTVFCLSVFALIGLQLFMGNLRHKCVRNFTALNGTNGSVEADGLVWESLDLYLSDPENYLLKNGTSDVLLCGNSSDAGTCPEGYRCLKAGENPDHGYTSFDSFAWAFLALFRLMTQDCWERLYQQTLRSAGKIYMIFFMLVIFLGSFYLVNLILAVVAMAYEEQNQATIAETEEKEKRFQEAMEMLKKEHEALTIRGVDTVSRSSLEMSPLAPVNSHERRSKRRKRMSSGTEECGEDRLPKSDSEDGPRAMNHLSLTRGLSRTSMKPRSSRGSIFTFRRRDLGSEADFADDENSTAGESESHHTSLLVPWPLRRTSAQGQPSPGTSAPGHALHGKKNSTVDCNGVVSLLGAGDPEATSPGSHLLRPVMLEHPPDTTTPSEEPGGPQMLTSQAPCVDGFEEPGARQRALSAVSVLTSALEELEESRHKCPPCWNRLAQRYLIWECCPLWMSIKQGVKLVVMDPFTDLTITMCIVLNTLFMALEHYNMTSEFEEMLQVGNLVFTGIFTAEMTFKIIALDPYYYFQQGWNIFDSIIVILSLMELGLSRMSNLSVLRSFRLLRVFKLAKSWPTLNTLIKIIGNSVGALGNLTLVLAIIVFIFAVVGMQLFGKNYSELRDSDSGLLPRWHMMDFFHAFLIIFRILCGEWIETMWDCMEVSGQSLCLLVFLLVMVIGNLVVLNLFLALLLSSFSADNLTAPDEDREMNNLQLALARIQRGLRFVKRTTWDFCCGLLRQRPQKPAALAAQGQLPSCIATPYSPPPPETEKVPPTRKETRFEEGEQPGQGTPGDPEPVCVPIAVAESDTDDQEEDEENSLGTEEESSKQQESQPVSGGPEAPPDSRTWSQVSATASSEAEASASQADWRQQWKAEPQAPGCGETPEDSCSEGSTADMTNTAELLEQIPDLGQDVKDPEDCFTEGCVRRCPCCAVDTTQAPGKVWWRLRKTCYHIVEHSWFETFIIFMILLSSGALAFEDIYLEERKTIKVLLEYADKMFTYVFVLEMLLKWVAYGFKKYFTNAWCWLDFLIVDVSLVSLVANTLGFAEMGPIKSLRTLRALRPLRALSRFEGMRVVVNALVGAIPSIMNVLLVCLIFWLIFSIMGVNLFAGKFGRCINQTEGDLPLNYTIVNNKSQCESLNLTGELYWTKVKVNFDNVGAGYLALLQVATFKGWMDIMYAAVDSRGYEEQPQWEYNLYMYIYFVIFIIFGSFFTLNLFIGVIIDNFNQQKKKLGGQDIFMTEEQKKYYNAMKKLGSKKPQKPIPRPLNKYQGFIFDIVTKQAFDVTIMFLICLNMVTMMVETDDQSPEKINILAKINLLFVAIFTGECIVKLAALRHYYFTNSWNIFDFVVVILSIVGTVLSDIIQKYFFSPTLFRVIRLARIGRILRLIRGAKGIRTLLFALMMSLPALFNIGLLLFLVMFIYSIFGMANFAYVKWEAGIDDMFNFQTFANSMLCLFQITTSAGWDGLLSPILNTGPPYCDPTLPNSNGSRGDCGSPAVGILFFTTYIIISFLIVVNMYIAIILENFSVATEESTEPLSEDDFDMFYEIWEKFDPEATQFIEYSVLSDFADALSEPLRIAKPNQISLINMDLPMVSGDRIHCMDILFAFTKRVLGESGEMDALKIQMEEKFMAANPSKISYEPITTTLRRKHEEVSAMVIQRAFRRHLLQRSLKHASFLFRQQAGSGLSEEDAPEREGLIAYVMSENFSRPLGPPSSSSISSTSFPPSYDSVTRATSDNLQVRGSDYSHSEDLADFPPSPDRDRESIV
Experimental: The purpose of the experiment is to investigate the effect of the compounds on Nav1.5 ion channel in an […] experiment. Nav1.5 ion channel is stably expressed on HEK293 cell. After the Nav1.5 current becomes stable, the Nav1.5 currents before and after the administration of the compound are compared so as to obtain the effect of the compound on the Nav1.5 ion channel.
Extracellular fluid: NaCl, 137 mM; KCl, 4 mM; CaCl2), 1.8 mM; MgCl2, 1 mM; HEPES, 10; glucose, 10 mM; pH 7.4 (NaOH titration).
Intracellular fluid: aspartic acid, 140 mM; MgCl2, 2 mM; EGTA, 11 mM; HEPES, 10 mM; pH 7.2 (CsOH titration).
The test compound was dissolved in dimethyl sulfoxide (DMSO) at a stock concentration of 9 mM. The stock solution of the test compound was dissolved in the extracellular fluid on the day of the test and formulated into the required concentration.
1) The compound was formulated into solutions with specified concentrations. The solutions were added to the pipelines respectively in order from high to low concentration, and the pipelines were marked.
2) The cell was transferred to the perfusion tank, and perfused with the extracellular fluid. The intracellular fluid was stored in small batches in a −80° C. refrigerator, and melted on the day of the experiment. The electrode was pulled with PC-10 (Narishige, Japan). Recording was carried out with the whole-cell patch clamp, and the noise was filtered at one-fifth of the sampling frequency.
3) All compounds were perfused with a perfusion system that uses its own gravity. Each concentration was tested in at least two cells. After the current stabilized (or after 5 minutes), the blocking effect of the compound was calculated by comparing the changes in the current before and after the administration of the compound.
The cell was clamped at −80 mV. The cell was depolarized to Vhalf with a square wave lasting 8 milliseconds, hyperpolarized to −120 mV with a square wave lasting 20 milliseconds, and depolarized to −10 mV with a square wave lasting 20 milliseconds to obtain the Nav1.5 current. This procedure was repeated every 15 seconds. The maximum current caused by the −10 mV square wave was measured. After the current became stable, the test compound was perfused. After the response became stable, the blocking intensity was calculated.
The data was stored in the computer system for analysis. Data collection and analysis were carried out by pCLAMP 10 (Molecular Devices, Union City, CA). Stable current means that the absolute average value of the peak current of four consecutive scans exceeds 200 pA and the CV value is less than 10%, or the average value of the peak current of four consecutive scans is between 200 pA and 50 pA and the CV value is less than 30%. The average value of the last four current peaks after the current stabilized was used to calculate the effect of the compound at the concentration.

[1] = Pharmacokinetics in BALB/C nude mice after intragastric administration; assay type: in vivo; details: female, mouse, plasma, po; for Vd/F: read-out: Apparent volume of distribution Vz/F; for AUC: read-out: Area under curve AUC; for CL/F: read-out: Clearance rate CL/F; for half-life: read-out: Half-life t1/2 (converted); for Cmax: read-out: Plasma concentration Cmax; for MRT: read-out: Residence time MRT
Experimental: BALB/C nude mice were used as test animals. The drug concentration in plasma at different time points was determined by LC/MS/MS method after intragastric administration of the compounds of the present disclosure to BALB/C nude mice. The pharmacokinetic behavior and characteristics of the compounds of the present disclosure was studied and evaluated in BALB/C nude mice.
Sixty-three BALB/C nude mice (female, equally divided into seven groups, nine mice per group) were purchased from Jiesijie Laboratory Animal Co., LTD. (Certificate No.: SCXK (Shanghai)2013-0006).
For the compound of Example 14, an appropriate amount of the compound was weighed, followed by the addition of 5% of DMSO, 5% of tween 80 and 90% of normal saline by volume to obtain a colorless, clear and transparent solution (0.1 mg/mL).
For the compounds of Examples 1, 15 and 39 to 42, an appropriate amount of the compound was weighed, followed by the addition of 9% of PEG400, 0.5% of tween 80 and 90.5% of 0.5% CMC-Na by volume to obtain a colorless, clear and transparent solution (1.5 mg/mL).
After an overnight fast, the test compounds were intragastrically administered at an administration volume of 0.2 ml/10 g respectively. The administration dose of the compound of Example 14 was 2 mg/kg, and the administration dose of the compounds of Examples 1, 15 and 39 to 42 was 30 mg/kg.
For the compounds of Examples 1 and 39, 0.1 ml of blood was taken at 0.25, 0.5, 1.0, 2.0, 4.0, 6.0, 8.0, 11.0 and 24.0 hours after the administration (from three animals per time point). The samples were stored in blood collection tubes treated with heparin (Sinopharm Chemical Reagent Co., Ltd.), and centrifuged for 10 minutes at 3500 rpm to separate the blood plasma. The blood plasma was stored at −20° C. The content of the test compound in the plasma of nude mouse after intragastrical administration of the test compound was determined. 25 μL of nude mouse plasma at each time point after the administration was taken, followed by the addition of 30 μL of the internal standard camptothecin solution (National Institutes for Food and Drug Control) (100 ng/mL) and 225 μL of acetonitrile. The resulting solution was vortex-mixed for 5 minutes, and centrifuged for 10 minutes (3700 to 4000 rpm). 0.1 to 0.5 μL of the supernatant was taken from the plasma samples for LC/MS/MS analysis.
For the compounds of Examples 14 and 15, 0.1 ml of blood was taken at 0.5, 1.0, 2.0, 4.0, 6.0, 8.0, 11.0 and 24.0 hours after the administration (from three animals per time point). The samples were stored in heparinized tubes, and centrifuged for 10 minutes at 3500 rpm to separate the blood plasma. The blood plasma was stored at −20° C. The content of the test compound in the plasma of nude mouse after intragastrical administration of the test compound was determined. 25 μL of nude mouse plasma at each time point after the administration was taken, followed by the addition of 30 μL of the internal standard camptothecin solution (100 ng/mL) and 200 μL of acetonitrile. The resulting solution was vortex-mixed for 5 minutes, and centrifuged for 10 minutes (3700 rpm). 0.25 to 1 μL of the supernatant was taken from the plasma samples for LC/MS/MS analysis.
For the compounds of Examples 40 to 42, 0.1 ml of blood was taken at 0.25, 0.5, 1.0, 2.0, 4.0, 6.0, 8.0, 11.0 and 24.0 hours after the administration (from three animals per time point). The samples were stored in tubes anticoagulated with EDTA-K2 (Shanghai Titan Scientific Co., Ltd.), and centrifuged for 1 minute at 10000 rpm and 4° C. The blood plasma was separated within one hour, and stored at −20° C. The process from blood collection to centrifugation was operated under an ice bath condition. The content of the test compound in the plasma of nude mouse after intragastrical administration of the test compound was determined. […]

Vd/F ([1]; 2 mg/kg)	AUC ([1]; 2 mg/kg)	bioavailability ([1]; 2 mg/kg, read-out: Bioavailability F)	CL/F ([1]; 2 mg/kg)	half-life ([1]; 2 mg/kg)	Cmax ([1]; 2 mg/kg)	MRT ([1]; 2 mg/kg)	Structure (SMILES)	pIC50 (Nav1.5 ion channel)	Vd/F ([1]; 30 mg/kg)	AUC ([1]; 30 mg/kg)	CL/F ([1]; 30 mg/kg)	half-life ([1]; 30 mg/kg)	Cmax ([1]; 30 mg/kg)	MRT ([1]; 30 mg/kg)
							O=C(/C=C/CNC1(COc2ccc(/C(=C(/CC(F)(F)F)c3ccccc3)c3ccc4[nH]nc(F)c4c3)cn2)CC1)N1CCOCC1 [Example 1, (E)-1-Morpholino-4-((1-(((5-((Z)-4,4,4-trifluoro-1-(3-fluoro-1H-indazol-5-yl)-2-phenylbut-1-en-1-yl)pyridin-2-yl)oxy)methyl)cyclopropyl)amino)but-2-en-1-one]	< 5.00	8.76 L/kg	9850 ng·h/mL	50.8 mL/min/kg	1.99 h	4280 ng/mL	1.6 h
14.2 L/kg	205 ng·h/mL	24.8%	163 mL/min/kg	1.01 h	87 ng/mL	1.9 h	CN(C)C(=O)/C=C/CN1CCC[C@@H](Oc2ccc(/C(=C(/CC(F)(F)F)c3ccccc3)c3ccc4[nH]nc(F)c4c3)cn2)C1 [Example 14, (E)-N,N-Dimethyl-4-((R)-3-((5-((Z)-4,4,4-trifluoro-1-(3-fluoro-1H-indazol-5-yl)-2-phenylbut-1-en-1-yl)pyridin-2-yl)oxy)piperidin-1-yl)but-2-enamide]							
							O=C(/C=C/CN1CCC[C@@H](Oc2ccc(/C(=C(/CC(F)(F)F)c3ccccc3)c3ccc4[nH]nc(F)c4c3)cn2)C1)N1CCCC1 [Example 15, (E)-1-(Pyrrolidin-1-yl)-4-((R)-3-((5-((Z)-4,4,4-trifluoro-1-(3-fluoro-1H-indazol-5-yl)-2-phenylbut-1-en-1-yl)pyridin-2-yl)oxy)piperidin-1-yl)but-2-en-1-one]		5.87 L/kg	6560 ng·h/mL	76 mL/min/kg	0.89 h	4570 ng/mL	1.41 h
							CN(C)C(=O)/C=C/CNC1(COc2ccc(/C(=C(/CC(F)(F)F)c3ccccc3)c3ccc4[nH]nc(F)c4c3)cn2)CC1 [Example 39, (E)-N,N-Dimethyl-4-((1-(((5-((Z)-4,4,4-trifluoro-1-(3-fluoro-1H-indazol-5-yl)-2-phenylbut-1-en-1-yl)pyridin-2-yl)oxy)methyl)cyclopropyl)amino)but-2-enamide]	5.09	2.47 L/kg	16500 ng·h/mL	30.3 mL/min/kg	0.94 h	6600 ng/mL	1.57 h
							O=C(/C=C/CNC1(COc2ccc(/C(=C(/CC(F)(F)F)c3ccccc3)c3ccc4[nH]nc(F)c4c3)cn2)CC1)N1CC(O)C1 [Example 40, (E)-1-(3-Hydroxyazetidin-1-yl)-4-((1-(((5-((Z)-4,4,4-trifluoro-1-(3-fluoro-1H-indazol-5-yl)-2-phenylbut-1-en-1-yl)pyridin-2-yl)oxy)methyl)cyclopropyl)amino)but-2-en-1-one]	4.94	4.59 L/kg	11900 ng·h/mL	42.1 mL/min/kg	1.26 h	3560 ng/mL	2.3 h
							O=C(/C=C/CNC1(COc2ccc(/C(=C(/CC(F)(F)F)c3ccccc3)c3ccc4[nH]nc(F)c4c3)cn2)CC1)N1CC[C@H](O)C1 [Example 41, (E)-1-((S)-3-Hydroxypyrrolidin-1-yl)-4-((1-(((5-((Z)-4,4,4-trifluoro-1-(3-fluoro-1H-indazol-5-yl)-2-phenylbut-1-en-1-yl)pyridin-2-yl)oxy)methyl)cyclopropyl)amino)but-2-en-1-one]	5.28	14.4 L/kg	5020 ng·h/mL	99.6 mL/min/kg	1.67 h	2890 ng/mL	2.26 h
							O=C(/C=C/CNC1(COc2ccc(/C(=C(/CC(F)(F)F)c3ccccc3)c3ccc4[nH]nc(F)c4c3)cn2)CC1)N1CCO[C@@H](CO)C1 [Example 42, (E)-1-((R)-2-(Hydroxymethyl)morpholino)-4-((1-(((5-((Z)-4,4,4-trifluoro-1-(3-fluoro-1H-indazol-5-yl)-2-phenylbut-1-en-1-yl)pyridin-2-yl)oxy)methyl)cyclopropyl)amino)but-2-en-1-one]		11.5 L/kg	4510 ng·h/mL	111 mL/min/kg	1.2 h	2570 ng/mL	1.56 h
